For 25 molecules, IC50 and inhibition results are on record in ChEMBL document CHEMBL4706531, “Discovery of Novel c-Mesenchymal-Epithelia transition factor and histone deacetylase dual inhibitors” (Eur J Med Chem, 2020).

Calls of active or inactive are those of the source. No cut-off for these calls is given here.

The test system of one test is MCF7. Briefly: cells. Conditions: Homo sapiens, MCF7, 72 h. The test is classed as functional, cell-based.
The next test relates to A549. Briefly: cells. The test is classed as functional, cell-based. The conditions noted are these: Homo sapiens, A549, 72 h.
Test [1] concerns the target T1, Histone deacetylase 1 (Homo sapiens, UniProt Q13547). Conditions: Sf9, dose 100.0 nM, time 75.0 min.
Another test deals with HCT-116. Briefly: cells. The test is classed as functional, cell-based. Conditions: Homo sapiens, HCT-116, 72 h.
Test [2] deals with T2, Hepatocyte growth factor receptor (Homo sapiens, UniProt P08581). Conditions: dose 100.0 nM, time 10.0 min.
T2 sequence (P08581 whole entry): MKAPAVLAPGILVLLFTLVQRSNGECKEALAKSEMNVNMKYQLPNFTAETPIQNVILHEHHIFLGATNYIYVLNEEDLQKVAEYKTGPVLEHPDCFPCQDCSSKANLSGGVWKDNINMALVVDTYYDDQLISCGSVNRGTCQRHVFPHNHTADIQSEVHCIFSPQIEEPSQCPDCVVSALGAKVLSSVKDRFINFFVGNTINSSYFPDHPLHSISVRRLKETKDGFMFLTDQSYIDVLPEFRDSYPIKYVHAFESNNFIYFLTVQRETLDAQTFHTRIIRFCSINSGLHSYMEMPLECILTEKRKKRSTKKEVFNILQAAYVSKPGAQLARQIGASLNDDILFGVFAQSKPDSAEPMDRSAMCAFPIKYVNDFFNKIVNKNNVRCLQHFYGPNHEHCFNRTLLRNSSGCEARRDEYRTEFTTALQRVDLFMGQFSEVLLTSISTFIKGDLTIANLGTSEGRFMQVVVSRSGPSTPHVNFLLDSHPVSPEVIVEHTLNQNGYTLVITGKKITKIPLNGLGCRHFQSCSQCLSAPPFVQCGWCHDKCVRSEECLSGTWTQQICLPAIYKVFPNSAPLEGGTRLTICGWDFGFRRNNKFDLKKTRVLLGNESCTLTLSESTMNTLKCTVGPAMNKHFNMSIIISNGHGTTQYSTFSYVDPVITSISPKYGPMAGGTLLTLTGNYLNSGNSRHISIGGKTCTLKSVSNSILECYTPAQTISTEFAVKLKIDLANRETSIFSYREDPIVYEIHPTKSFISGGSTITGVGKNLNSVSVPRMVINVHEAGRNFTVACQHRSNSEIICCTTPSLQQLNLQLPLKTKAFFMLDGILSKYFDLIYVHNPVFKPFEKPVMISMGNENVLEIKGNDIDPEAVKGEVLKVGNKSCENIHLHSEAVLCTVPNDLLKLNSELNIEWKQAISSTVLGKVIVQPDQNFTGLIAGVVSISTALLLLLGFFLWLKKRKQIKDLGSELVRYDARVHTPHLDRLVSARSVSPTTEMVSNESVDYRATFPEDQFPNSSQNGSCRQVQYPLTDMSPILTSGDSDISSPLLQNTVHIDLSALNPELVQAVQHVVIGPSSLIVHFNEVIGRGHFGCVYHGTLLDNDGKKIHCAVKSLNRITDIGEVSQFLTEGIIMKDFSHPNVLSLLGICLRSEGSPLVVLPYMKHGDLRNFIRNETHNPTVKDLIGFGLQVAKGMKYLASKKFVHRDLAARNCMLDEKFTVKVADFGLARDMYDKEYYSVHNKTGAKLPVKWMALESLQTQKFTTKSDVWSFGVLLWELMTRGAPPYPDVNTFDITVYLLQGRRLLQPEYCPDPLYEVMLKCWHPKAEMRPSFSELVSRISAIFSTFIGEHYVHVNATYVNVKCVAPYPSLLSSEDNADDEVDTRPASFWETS
The target in test [3] is T2, Hepatocyte growth factor receptor. Briefly: Inhibition of c-MET(unknown origin) using FAM labelled peptide substrate preincubated for 10 mins followed by substrate addition and measured by microplate reader method.
For test [4], the target named is T1, Histone deacetylase 1. Briefly: Inhibition of human C-terminal Flag tagged HDAC1 (1 to 482 residues) expressed in SF9 cells using Ac-peptide substrate preincubated for 15 mins followed by substrate addition and measured after 60 mins by microplate reader method.

T1 sequence (Q13547 whole entry): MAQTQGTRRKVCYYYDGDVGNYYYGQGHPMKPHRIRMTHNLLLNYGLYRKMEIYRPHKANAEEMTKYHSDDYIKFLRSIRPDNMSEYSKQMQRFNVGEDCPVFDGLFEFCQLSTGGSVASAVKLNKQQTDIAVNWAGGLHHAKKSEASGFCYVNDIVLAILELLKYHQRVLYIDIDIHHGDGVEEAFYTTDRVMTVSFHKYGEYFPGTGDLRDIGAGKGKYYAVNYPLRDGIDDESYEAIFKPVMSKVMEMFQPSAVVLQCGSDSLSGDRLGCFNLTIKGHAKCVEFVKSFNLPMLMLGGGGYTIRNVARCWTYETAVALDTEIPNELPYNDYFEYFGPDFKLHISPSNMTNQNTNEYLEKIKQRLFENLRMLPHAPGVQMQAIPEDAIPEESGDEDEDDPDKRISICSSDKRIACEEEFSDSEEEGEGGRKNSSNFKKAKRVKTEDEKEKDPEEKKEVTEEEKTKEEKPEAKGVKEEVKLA
Description for A549: Antiproliferative activity against human A549 cells assessed as inhibition of cell proliferation measured after 72 hrs by MTT assay
Description for HCT-116: Antiproliferative activity against human HCT-116 cells assessed as inhibition of cell proliferation measured after 72 hrs by MTT assay
Description for MCF7: Antiproliferative activity against human MCF7 cells assessed as inhibition of cell proliferation measured after 72 hrs by MTT assay

As for `COc1cc2c(Oc3ccc(NC(=O)c4nn(-c5ccccc5)ccc4=O)cc3)ccnc2cc1OCCCC(=O)NO`, the 50% inhibitory concentration (IC50) (as a rule, the concentration that gives 50% inhibition) in the test with MCF7 came to 7.41 µM; in the test on A549, 9.26 µM; in the test with HCT-116, 0.94 µM. Besides, the figures for the inhibition (against Histone deacetylase 1 [1]; in test [2]) were 12.6% and 96.4%, respectively.

As to `COc1cc2c(Oc3ccc(NC(=O)c4nn(-c5ccccc5C)ccc4=O)cc3)ccnc2cc1OCCCCCC(=O)NO`, the IC50 in the test with MCF7 turned out to be 4.36 µM; with A549, 3.92 µM; in the test on HCT-116, 0.7 µM. The inhibition (in general, the drop in the measured response relative to a control, in per cent) was 62.1% against Histone deacetylase 1 [1] and 90.4% in test [2].

`COc1cc2c(Oc3ccc(NC(=O)c4nn(-c5ccccc5)cc(C)c4=O)cc3)ccnc2cc1OCCCCCCC(=O)NO`: the concentration for half-maximal inhibition (IC50) in the test on MCF7 was 1.61 µM; in the test on A549, 0.42 µM; in test [3], 0.0199 µM; with HCT-116, 0.15 µM; against Histone deacetylase 1 [4], 0.034 µM. The inhibition was 86.6% on Histone deacetylase 1 [1] and 88.6% in test [2].

Take `COc1cc2c(Oc3ccc(NC(=O)c4nn(-c5ccc(F)c(Cl)c5)cc(C)c4=O)cc3)ccnc2cc1OCCCCCCC(=O)NO`: the concentration for half-maximal inhibition (IC50) in the test with MCF7 turned out to be 2.2 µM; in the test with A549 it was 0.38 µM; with HCT-116, 0.37 µM. The inhibition against Histone deacetylase 1 [1] came out at 40%; in test [2], 61.1%.

Turning to `COc1cc2c(Oc3ccc(NC(=O)c4nn(-c5cccc(C(F)(F)F)c5)cc(C)c4=O)cc3)ccnc2cc1OCCCCCCC(=O)NO`, the IC50 in the test with MCF7 stood at 0.75 µM; with A549, 0.78 µM; with HCT-116 it was 0.59 µM. Moreover, the inhibition stood at 35.3% on Histone deacetylase 1 [1] and 46.3% in test [2].

`COc1cc2c(Oc3ccc(NC(=O)c4nn(-c5ccccc5F)cc(C)c4=O)cc3F)ccnc2cc1OCCCC(=O)NO`: the half-maximal inhibitory concentration (IC50) is 2.1 µM in the test on MCF7, 1.37 µM with A549 and 1.12 µM in the test with HCT-116. For the same molecule, the results for the inhibition (at Histone deacetylase 1 [1]; in test [2]) were 7.1% and 94%, respectively.

Consider `COc1cc2c(Oc3ccc(NC(=O)c4nn(-c5ccc(C)cc5C)cc(C)c4=O)cc3)ccnc2cc1OCCCCCCC(=O)NO`, for which the half-maximal inhibitory concentration (IC50) in the test on MCF7 came to 2.43 µM; with A549 it was 1.84 µM; with HCT-116, 0.44 µM. In addition, the inhibition on Histone deacetylase 1 [1] was determined as 65.3%; in test [2], 63.8%.

Take `CCc1cn(-c2ccccc2)nc(C(=O)Nc2ccc(Oc3ccnc4cc(OCCCCCCC(=O)NO)c(OC)cc34)cc2)c1=O`: the IC50 with MCF7 was 1.21 µM; in the test on A549 it was 0.23 µM; in test [3], 0.0142 µM; with HCT-116 it was 0.3 µM; against Histone deacetylase 1 [4], 0.0348 µM. The inhibition stood at 86.4% on Histone deacetylase 1 [1] and 78.2% in test [2].

Turning to `COc1cc2c(Oc3ccc(NC(=O)c4nn(-c5ccccc5)cc(C)c4=O)cc3F)ccnc2cc1OCCCC(=O)NO`, the IC50 in the test on MCF7 was 1.9 µM; in the test with A549, 1.9 µM; in the test on HCT-116, 0.66 µM. The inhibition against Histone deacetylase 1 [1] worked out at 2.5%; in test [2], 98.3%.

Regarding `COc1cc2c(Oc3ccc(NC(=O)c4nn(-c5ccc(C)cc5)cc(C)c4=O)cc3)ccnc2cc1OCCCCCCC(=O)NO`, the half-inhibitory concentration (IC50) in the test with MCF7 turned out to be 2.56 µM; with A549, 0.16 µM; with HCT-116, 0.4 µM. The inhibition came out at 47.6% against Histone deacetylase 1 [1] and 72.8% in test [2].

`COc1cc2c(Oc3ccc(NC(=O)c4nn(-c5ccccc5C)ccc4=O)cc3F)ccnc2cc1OCCCC(=O)NO`: the half-maximal inhibitory concentration (IC50) in the test on MCF7 was 3.2 µM; with A549 it was 5.74 µM; in the test with HCT-116, 3.98 µM. Also, the inhibition is 6% on Histone deacetylase 1 [1] and 93.5% in test [2].

Take `COc1cc2c(Oc3ccc(NC(=O)c4nn(-c5ccccc5F)cc(C)c4=O)cc3F)ccnc2cc1OCCCCCC(=O)NO`: the concentration for half-maximal inhibition (IC50) was determined as 2.32 µM with MCF7, 1.32 µM in the test on A549 and 0.59 µM with HCT-116. Further, the results for the inhibition (against Histone deacetylase 1 [1]; in test [2]) were 61.1% and 89.1%, respectively.

For the molecule `COc1cc2c(Oc3ccc(NC(=O)c4nn(-c5ccccc5C)cc(C)c4=O)cc3F)ccnc2cc1OCCCC(=O)NO`, the IC50 with MCF7 was determined as 2.6 µM; with A549 it was 2.09 µM; with HCT-116, 2.04 µM. In addition, the inhibition against Histone deacetylase 1 [1] came to 8%; in test [2], 95.5%.

Take `COc1cc2c(Oc3ccc(NC(=O)c4nn(-c5ccc(Cl)c(C(F)(F)F)c5)cc(C)c4=O)cc3)ccnc2cc1OCC(=O)NO`: the concentration for half-maximal inhibition (IC50) was 3.48 µM in the test on MCF7, 1.59 µM with A549 and 0.35 µM in the test on HCT-116. Besides, the inhibition on Histone deacetylase 1 [1] amounted to 5.2%; in test [2], 50.2%.

For the molecule `COc1cc2c(Oc3ccc(NC(=O)c4nn(-c5ccccc5C)cc(C)c4=O)cc3)ccnc2cc1OCCCCCC(=O)NO`, the half-maximal inhibitory concentration (IC50) is 1.83 µM with MCF7, 1.82 µM in the test with A549 and 0.29 µM in the test with HCT-116. The inhibition turned out to be 36.9% at Histone deacetylase 1 [1] and 95.7% in test [2].

With `COc1cc2c(Oc3ccc(NC(=O)c4nn(-c5ccccc5)cc(C)c4=O)cc3F)ccnc2cc1OCCCN1CCOCC1`, the 50% inhibitory concentration (IC50) in the test on MCF7 was 0.63 µM; in the test on A549 it was 1.12 µM; in test [3] it was 0.00742 µM; with HCT-116, 0.37 µM. The molecule also showed an inhibition in test [2] of 93.8%.

As for `COc1cc2c(Oc3ccc(NC(=O)c4nn(-c5ccccc5F)cc(C)c4=O)cc3)ccnc2cc1OCCCC(=O)NO`, the values for the half-inhibitory concentration (IC50) in the test on MCF7, in the test on A549 and in the test on HCT-116 were 2.65 µM, 3.92 µM and 0.95 µM, respectively. Besides, the inhibition worked out at 9.2% against Histone deacetylase 1 [1] and 90.8% in test [2].

`O=C(CCCCCCC(=O)Nc1ccccc1)NO` gave an inhibition in test [2] of 2.8%.

On to `COc1cc2c(Oc3ccc(NC(=O)c4nn(-c5ccccc5C)cc(C)c4=O)cc3)ccnc2cc1OCC(=O)NO`, for which the concentration for half-maximal inhibition (IC50) was determined as 8.78 µM in the test on MCF7, 5.98 µM with A549 and 9.26 µM in the test with HCT-116. On Histone deacetylase 1 [1], the inhibition result was “inactive”. Moreover, the inhibition in test [2] turned out to be 63.5%.

Take `COc1cc2c(Oc3ccc(NC(=O)c4nn(-c5ccccc5C)cc(C)c4=O)cc3)ccnc2cc1OCCCC(=O)NO`: the 50% inhibitory concentration (IC50) worked out at 1.6 µM in the test with MCF7, 4.46 µM in the test with A549 and 0.64 µM in the test with HCT-116. For the same molecule, the results for the inhibition (on Histone deacetylase 1 [1]; in test [2]) were 10.7% and 98.5%, respectively.

In the case of `COc1cc2c(Oc3ccc(NC(=O)c4nn(-c5cccc(C)c5)cc(C)c4=O)cc3)ccnc2cc1OCCCCCCC(=O)NO`, the 50% inhibitory concentration (IC50) came to 1.68 µM in the test on MCF7, 0.28 µM in the test on A549 and 0.37 µM in the test on HCT-116. The values for the inhibition (on Histone deacetylase 1 [1]; in test [2]) were 62% and 76.5%, respectively.

With `COc1cc2c(Oc3ccc(NC(=O)c4nn(-c5ccccc5C(F)(F)F)ccc4=O)cc3)ccnc2cc1OCC(=O)NO`, the values for the IC50 with MCF7, with A549 and in the test with HCT-116 were 6.32 µM, > 20 µM and 9.5 µM, respectively. In addition, the inhibition worked out at 1.2% at Histone deacetylase 1 [1] and 56.3% in test [2].

With `COc1cc2c(Oc3ccc(NC(=O)c4nn(-c5ccccc5)cc(C)c4=O)cc3F)ccnc2cc1OCCCCCC(=O)NO`, the IC50 amounted to 2.33 µM with MCF7, 4.17 µM in the test with A549 and 0.69 µM in the test on HCT-116. Also, the inhibition against Histone deacetylase 1 [1] came out at 53.3%; in test [2], 95%.

As to `COc1cc2nccc(Oc3ccc(NC(=O)C4(C(=O)Nc5ccc(F)cc5)CC4)cc3)c2cc1OC` [CABOZANTINIB], the IC50 in the test on MCF7 is 5.98 µM; in the test with A549, 7.8 µM; in the test on HCT-116, 4.67 µM.

In the case of `COc1cc2c(Oc3ccc(NC(=O)c4nn(-c5ccccc5C)cc(C)c4=O)cc3)ccnc2cc1OCCCCCCC(=O)NO`, the IC50 stood at 1.83 µM with MCF7, 3.13 µM with A549 and 0.66 µM with HCT-116. Moreover, the figures for the inhibition (on Histone deacetylase 1 [1]; in test [2]) were 89.1% and 78.6%, respectively.
